Measured values: ChEMBL document CHEMBL2380255, “Dual targeting of adenosine A(2A) receptors and monoamine oxidase B by 4H-3,1-benzothiazin-4-ones” (J Med Chem, 2013)

Legend:
[1] = molecular target: T1, Amine oxidase [flavin-containing] B (Rattus norvegicus, UniProt P19643); test: Inhibition of MAO-B in mitochondria-enriched Sprague-Dawley rat liver fractions using p-tyramine as substrate incubated for 30 mins prior to substrate addition measured for 45 mins by amplex red reagent-based microplate fluorescence reader analysis
T1 sequence (P19643 whole entry): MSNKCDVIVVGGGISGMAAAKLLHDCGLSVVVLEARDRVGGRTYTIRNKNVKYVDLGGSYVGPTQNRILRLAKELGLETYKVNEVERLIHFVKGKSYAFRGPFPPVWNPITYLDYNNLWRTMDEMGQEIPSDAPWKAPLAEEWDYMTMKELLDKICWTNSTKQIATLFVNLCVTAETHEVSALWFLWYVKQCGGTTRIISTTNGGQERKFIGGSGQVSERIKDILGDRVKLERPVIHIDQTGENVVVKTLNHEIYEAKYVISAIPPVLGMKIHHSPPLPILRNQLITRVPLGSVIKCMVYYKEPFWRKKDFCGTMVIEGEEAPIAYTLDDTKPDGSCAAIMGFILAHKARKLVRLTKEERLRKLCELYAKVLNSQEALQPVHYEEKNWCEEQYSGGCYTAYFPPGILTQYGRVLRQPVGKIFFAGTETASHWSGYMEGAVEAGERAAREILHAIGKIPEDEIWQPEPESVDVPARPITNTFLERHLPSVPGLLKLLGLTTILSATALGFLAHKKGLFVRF

Adenosine receptor A1 [2] = molecular target: T2, Adenosine receptor A1 (Rattus norvegicus, UniProt P25099); test: Displacement of [3H]CCPA from adenosine A1 receptor in rat brain cortical membranes after 90 mins by liquid scintillation counting analysis; type: cell membranes, Membrane
T2 sequence (P25099 whole entry): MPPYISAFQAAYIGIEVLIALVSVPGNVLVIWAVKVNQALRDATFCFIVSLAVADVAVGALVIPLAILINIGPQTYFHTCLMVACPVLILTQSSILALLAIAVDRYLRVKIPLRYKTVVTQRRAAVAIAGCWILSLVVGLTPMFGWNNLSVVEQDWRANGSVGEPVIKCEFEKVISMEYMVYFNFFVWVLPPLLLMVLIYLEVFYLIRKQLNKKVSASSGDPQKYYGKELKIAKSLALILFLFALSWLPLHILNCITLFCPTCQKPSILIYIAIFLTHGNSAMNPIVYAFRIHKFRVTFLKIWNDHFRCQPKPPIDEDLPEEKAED

Adenosine receptor A1 [3] = molecular target: T3, Adenosine receptor A1 (Homo sapiens, UniProt P30542); test: Displacement of [3H]CCPA from human recombinant adenosine A1 receptor expressed in CHO cells after 90 mins by liquid scintillation counting analysis; type: cell-based
T3 sequence (P30542 whole entry): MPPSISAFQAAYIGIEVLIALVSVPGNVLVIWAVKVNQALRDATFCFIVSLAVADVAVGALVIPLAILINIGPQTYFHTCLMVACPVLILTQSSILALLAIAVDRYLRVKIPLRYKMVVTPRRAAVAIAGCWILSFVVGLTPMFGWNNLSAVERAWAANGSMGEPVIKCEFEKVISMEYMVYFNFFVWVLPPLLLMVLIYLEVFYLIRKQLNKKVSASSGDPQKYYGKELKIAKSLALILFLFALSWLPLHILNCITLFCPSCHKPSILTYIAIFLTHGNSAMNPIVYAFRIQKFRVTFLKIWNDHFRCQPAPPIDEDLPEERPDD

Adenosine receptor A3 = molecular target: T4, Adenosine receptor A3 (Homo sapiens, UniProt P0DMS8); test: Displacement of [3H]PSB-11 from human recombinant adenosine A3 receptor expressed in CHO cells after 60 mins by liquid scintillation counting analysis; type: cell-based
T4 sequence (P0DMS8 whole entry): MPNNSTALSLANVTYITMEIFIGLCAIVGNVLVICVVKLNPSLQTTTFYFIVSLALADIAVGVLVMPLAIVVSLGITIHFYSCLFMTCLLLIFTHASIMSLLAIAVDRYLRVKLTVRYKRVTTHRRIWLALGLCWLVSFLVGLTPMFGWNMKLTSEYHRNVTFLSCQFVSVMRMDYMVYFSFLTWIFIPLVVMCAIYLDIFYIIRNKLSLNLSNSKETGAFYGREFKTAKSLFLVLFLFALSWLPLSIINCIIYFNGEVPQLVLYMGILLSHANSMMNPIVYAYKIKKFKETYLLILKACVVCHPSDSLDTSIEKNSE

Adenosine receptor A2b = molecular target: T5, Adenosine receptor A2b (Homo sapiens, UniProt P29275); test: Displacement of [3H]PSB-603 from human recombinant adenosine A2B receptor expressed in CHO cells after 75 mins by liquid scintillation counting analysis; type: cell-based
T5 sequence (P29275 whole entry): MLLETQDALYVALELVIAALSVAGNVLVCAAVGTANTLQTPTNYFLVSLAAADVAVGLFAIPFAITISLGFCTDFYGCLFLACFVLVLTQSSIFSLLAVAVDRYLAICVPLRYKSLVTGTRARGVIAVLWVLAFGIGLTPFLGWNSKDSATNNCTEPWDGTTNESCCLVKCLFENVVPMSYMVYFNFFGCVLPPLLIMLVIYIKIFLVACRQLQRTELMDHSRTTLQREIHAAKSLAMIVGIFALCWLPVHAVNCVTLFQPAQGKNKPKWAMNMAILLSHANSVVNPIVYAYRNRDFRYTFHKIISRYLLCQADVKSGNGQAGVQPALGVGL

[4] = molecular target: T6, Amine oxidase [flavin-containing] B (Homo sapiens, UniProt P27338); test: Inhibition of recombinant human MAO-B expressed in baculovirus-infected insect cells using p-tyramine as substrate incubated for 30 mins prior to substrate addition measured for 45 mins by amplex red reagent-based microplate fluorescence reader analysis; type: cell-based
T6 sequence (P27338 whole entry): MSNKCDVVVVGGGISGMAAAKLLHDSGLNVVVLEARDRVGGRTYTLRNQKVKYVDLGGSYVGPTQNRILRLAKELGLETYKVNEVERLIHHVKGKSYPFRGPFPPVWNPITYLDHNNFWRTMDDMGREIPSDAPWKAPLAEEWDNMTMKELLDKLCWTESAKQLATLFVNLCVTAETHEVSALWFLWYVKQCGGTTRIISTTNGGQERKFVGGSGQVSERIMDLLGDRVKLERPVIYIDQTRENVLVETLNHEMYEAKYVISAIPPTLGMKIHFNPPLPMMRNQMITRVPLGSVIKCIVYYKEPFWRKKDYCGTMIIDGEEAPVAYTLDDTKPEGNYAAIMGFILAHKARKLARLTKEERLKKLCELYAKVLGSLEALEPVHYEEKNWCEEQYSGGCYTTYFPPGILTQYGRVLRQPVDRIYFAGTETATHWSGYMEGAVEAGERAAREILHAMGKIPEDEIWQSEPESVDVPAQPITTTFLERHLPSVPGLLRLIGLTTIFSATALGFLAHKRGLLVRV

[5] = Selectivity ratio of IC50 for MAO-B in mitochondria-enriched Sprague-Dawley rat liver fractions to IC50 for recombinant human MAO-B
Adenosine receptor A2a [6] = molecular target: Adenosine receptor A2a (Rattus norvegicus, UniProt P30543); test: Displacement of [3H]MSX2 from adenosine A2A receptor in rat brain striatal membranes after 30 mins by liquid scintillation counting analysis; type: cell membranes, Membrane
Adenosine receptor A2a [7] = molecular target: Adenosine receptor A2a (Homo sapiens, UniProt P29274); test: Displacement of [3H]MSX2 from human recombinant adenosine A2A receptor expressed in CHO cells after 30 mins by liquid scintillation counting analysis; type: cell-based
Homo sapiens [8] = species on record: Homo sapiens; test: Selectivity ratio of Ki for human recombinant adenosine A2B receptor to Ki for human recombinant adenosine A2A receptor
Homo sapiens [9] = species on record: Homo sapiens; test: Selectivity ratio of Ki for human recombinant adenosine A3 receptor to Ki for human recombinant adenosine A2A receptor

Chain of Adenosine receptor A2a (Rattus norvegicus, UniProt P30543) (P30543 whole entry): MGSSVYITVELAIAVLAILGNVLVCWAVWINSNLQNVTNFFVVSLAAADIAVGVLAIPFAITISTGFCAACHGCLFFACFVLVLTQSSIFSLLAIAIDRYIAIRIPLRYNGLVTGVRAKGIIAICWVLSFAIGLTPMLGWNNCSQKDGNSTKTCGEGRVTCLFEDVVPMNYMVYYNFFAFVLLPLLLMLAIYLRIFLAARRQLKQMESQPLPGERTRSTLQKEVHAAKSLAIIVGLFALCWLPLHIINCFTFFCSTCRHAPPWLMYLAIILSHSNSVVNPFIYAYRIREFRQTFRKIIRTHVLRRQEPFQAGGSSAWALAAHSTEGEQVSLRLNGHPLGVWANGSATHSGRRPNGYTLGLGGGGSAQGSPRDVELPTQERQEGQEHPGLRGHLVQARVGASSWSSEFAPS
Chain of Adenosine receptor A2a (Homo sapiens, UniProt P29274) (P29274 whole entry): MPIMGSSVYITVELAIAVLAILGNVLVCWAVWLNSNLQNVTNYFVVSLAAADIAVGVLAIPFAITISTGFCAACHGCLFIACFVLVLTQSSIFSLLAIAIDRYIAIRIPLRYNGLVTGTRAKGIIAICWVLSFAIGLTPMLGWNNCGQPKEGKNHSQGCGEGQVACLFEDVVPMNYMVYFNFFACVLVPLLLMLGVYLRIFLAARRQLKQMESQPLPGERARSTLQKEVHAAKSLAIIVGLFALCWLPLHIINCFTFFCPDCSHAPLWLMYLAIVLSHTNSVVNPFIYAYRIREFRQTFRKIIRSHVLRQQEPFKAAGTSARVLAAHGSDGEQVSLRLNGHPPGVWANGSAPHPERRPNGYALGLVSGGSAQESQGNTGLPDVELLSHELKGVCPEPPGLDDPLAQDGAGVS

Structure (SMILES)	IC50 [1] [nM]	Ki (Adenosine receptor A1 [2]) [nM]	Ki (Adenosine receptor A1 [3]) [nM]	Ki (Adenosine receptor A3) [nM]	Ki (Adenosine receptor A2b) [nM]	IC50 [4] [nM]	Ratio IC50 [5]	Ki (Adenosine receptor A2a [6]) [nM]	Ki (Adenosine receptor A2a [7]) [nM]	Ratio Ki (Homo sapiens [8])	Ratio Ki (Homo sapiens [9])
O=C(CCCc1cccc(Cl)c1)Nc1nc2ccccc2c(=O)s1	6880	898	> 10000	> 1000	≥ 1000	> 1000	1.4	> 10000	–	–	–
COCCOc1ccc(N2CCN(CCn3ncc4c3nc(N)n3nc(-c5ccco5)nc43)CC2)cc1 [PRELADENANT]	–	68.7	295	> 1000	> 1000	–	–	0.66	0.884	–	–
O=C(/C=C/c1cccc(Cl)c1)Nc1nc2ccccc2c(=O)s1	815	≥ 10000	–	> 1000	> 1000	93.3	1.4	> 10000	> 1000	–	–
Cc1ccc2nc(NC(=O)CCCc3ccccc3)sc(=O)c2c1	325	98.3	1000	147	408	94	1.4	6060	–	–	–
O=C(Nc1nc2ccccc2c(=O)s1)c1ccc(C(=O)N2CCN(Cc3cccc(Cl)c3)CC2)cc1	–	–	> 1000	> 1000	> 1000	> 10000	1.4	84.7	58.3	–	–
O=C(CCCc1ccccc1)Nc1nc2cc(Cl)ccc2c(=O)s1	1220	64.4	785	91.6	> 1000	76.4	1.4	≥ 10000	–	–	–
O=C(C/C=C/c1ccc(Cl)c(Cl)c1)Nc1nc2ccccc2c(=O)s1	4640	≥ 1500	–	> 1000	> 1000	> 10000	–	> 1000	–	–	–
O=C(CCc1ccccc1Br)Nc1nc2ccccc2c(=O)s1	64	> 10000	–	> 1000	> 1000	2.09	31	> 10000	–	–	–
O=C(Nc1nc2ccccc2c(=O)s1)c1ccccc1	> 10000	–	–	–	–	–	1.4	–	–	–	–
O=C(CCCc1ccccc1)Nc1nc2ccc(Cl)cc2c(=O)s1	> 10000	> 10000	–	> 1000	> 1000	> 10000	1.4	> 10000	–	–	–

Continued, values first:

IC50 [1] [nM]	Ki (Adenosine receptor A1 [2]) [nM]	Ki (Adenosine receptor A1 [3]) [nM]	Ki (Adenosine receptor A3) [nM]	Ki (Adenosine receptor A2b) [nM]	IC50 [4] [nM]	Ratio IC50 [5]	Ki (Adenosine receptor A2a [6]) [nM]	Ki (Adenosine receptor A2a [7]) [nM]	Ratio Ki (Homo sapiens [8])	Ratio Ki (Homo sapiens [9])	Structure (SMILES)
361	53	822	158	119	39.8	1.4	814	118	–	–	O=C(C/C=C/c1ccccc1)Nc1nc2ccccc2c(=O)s1
3300	> 1500	–	> 1000	> 1000	3440	–	> 10000	–	–	–	O=C(CCCc1ccc(Cl)c(Cl)c1)Nc1nc2ccccc2c(=O)s1
73.9	> 10000	–	> 1000	> 1000	43.7	1.4	1720	≥ 1000	–	–	COc1cccc(C#CC(=O)Nc2nc3ccccc3c(=O)s2)c1
–	> 10000	–	> 1000	> 1000	53.1	1.4	> 10000	> 10000	–	–	CN(C(=O)CCCc1ccccc1)c1nc2ccccc2c(=O)s1
725	> 10000	–	≥ 1000	801	11.2	65	2190	–	–	–	O=C(CCc1ccccc1F)Nc1nc2ccccc2c(=O)s1
–	–	> 1000	> 1000	> 1000	> 10000	1.4	> 10000	> 1000	–	–	O=C(Nc1nc2ccccc2c(=O)s1)c1ccc(C(=O)N2CCN(Cc3ccccc3Cl)CC2)cc1
26.6	> 10000	–	> 1000	> 1000	9.8	1.4	> 10000	–	–	–	Cc1sc2nc(NC(=O)CCCc3ccccc3)sc(=O)c2c1C
1300	22.5	214	382	302	389	1.4	558	115	–	–	COc1cccc(CCCC(=O)Nc2nc3ccccc3c(=O)s2)c1
–	–	–	–	–	> 10000	1.4	–	–	–	–	O=C(Nc1nc2ccccc2c(=O)s1)c1ccc(C(=O)N2CCN(Cc3ccccc3)CC2)cc1
> 10000	> 1500	–	> 1000	> 1000	> 10000	1.4	> 10000	–	–	–	O=C(CCc1ccc(Cl)c(Cl)c1)Nc1nc2ccccc2c(=O)s1
298	≥ 10000	–	> 1000	547	206	1.4	> 10000	–	–	–	O=C(CCCc1ccccc1)Nc1nc2ccsc2c(=O)s1
281	205	> 10000	> 1000	679	470	–	253	62.4	10	> 16	COc1cccc(/C=C/C(=O)Nc2nc3ccccc3c(=O)s2)c1
> 10000	> 10000	–	> 1000	> 1000	> 10000	1.4	> 10000	–	–	–	O=C(CCCc1ccccc1)Nc1nc2ccc(Br)cc2c(=O)s1
